Data taken from patent US6737383B1, “Herbicidal oxadiazolidines” (priority 1999, dated 2004).

Key:
[1] = tested on: littleseed canarygrass; assay: Test E littleseed canarygrass; assay type: in vivo, Phalaris minor; settings: Preemergence
[2] = tested on: kochia; assay: Test E kochia; assay type: in vivo, Kochia scoparia; settings: Preemergence
[3] = tested on: rape; assay: Test E rape; assay type: in vivo, Brassica napus; settings: Preemergence
[4] = tested on: Russian thistle; assay: Test E Russian thistle; assay type: in vivo, Salsola kali; settings: Preemergence
[5] = tested on: winter barley; assay: Test E winter barley; assay type: in vivo, Hordeum vulgare; settings: Postemergence
Experimental: (§1) Compounds evaluated in this test were formulated in a non-phytotoxic solvent mixture which included a surfactant and applied to plants that were in the 1- to 4-leaf stage (postemergence application). A mixture of sandy loam soil and greenhouse potting mix in a 60:40 ratio was used for the postemergence test.
(§2) Plantings of these crops and weed species were adjusted to produce plants of appropriate size for the postemergence test. All plant species were grown using normal greenhouse practices. Crop and weed species include annual bluegrass (Poa annua), blackgrass (Alopecurus myosuroides), black nightshade (Solanum nigra), chickweed (Stellaria media), common poppy (Papaver rhoeas), deadnettle (Lamium amplexicaule), downy brome (Bromus tectorum), field violet (Viola arvensis), galium (Galium aparine), green foxtail (Setaria viridis), Italian ryegrass (Lolium multiflorum), jointed goatgrass (Aegilops cylindrica), kochia (Kochia scoparia), lambsquarters (Chenopodium album), littleseed canarygrass (Phalaris minor), rape (Brassica napus), redroot pigweed (Amaranthus retroflexus), Russian thistle (Salsola kali), scentless chamomile (Matricaria inodora), spring barley (Hordeum vulgare), sugar beet (Beta vulgaris), sunflower (Helianthus annuus), ivyleaf speedwell (Veronica hederaefolia), spring wheat (Triticum aestivum), winter wheat (Triticum aestivum), wild buckwheat (Polygonum convolvulus), wild mustard (Sinapis arvensis), wild oat (Avena fatua), windgrass (Apera spica-venti) and winter barley (Hordeum vulgare).
(§3) Treated plants and untreated controls were maintained in a greenhouse for approximately 21 to 28 days, after which all treated plants were compared to untreated controls and visually evaluated. […] A dash response (-) means no test result.

[6] = tested on: johnsongrass; assay: Test C postemergence johnsongrass; assay type: in vivo, Sorghum halepense; settings: 0 to 100 scale, 0 no effect, 100 complete control
Experimental: as §1, with “grown for various periods of time before treatment” for “in the 1- to 4-leaf stage”
(§4) Plantings of these crops and weed species were adjusted to produce plants of appropriate size for the postemergence test. All plant species were grown using normal greenhouse practices. Crop and weed species include arrowleaf sida (Sida rhombifolia), barnyardgrass (Echinochloa crus-galli), cocklebur (Xanthium strumarium), common ragweed (Ambrosia elatior), corn (Zea mays), cotton (Gossypium hirsutum), eastern black nightshade (Solanum ptycanthum), fall panicum (Panicum dichotomiflorum), field bindweed (Convolvulus arvensis), giant foxtail (Setaria faberii), hairy beggarticks (Bidens pilosa), ivyleaf morningglory (Ipomoea hederacea), johnsongrass (Sorghum halepense), ladysthumb smartweed (Polygonum persicaria), lambsquarters (Chenopodium album), large crabgrass (Digitaria sanguinalis), purple nutsedge (Cyperus rotundus), redroot pigweed (Amaranthus retroflexus), soybean (Glycine max), surinam grass (Brachiaria decumbens), velvetleaf (Abutilon theophrasti) and wild poinsettia (Euphorbia heterophylla).
(§5) Treated plants and untreated controls were maintained in a greenhouse for approximately 14, to 21 days, after which all treated plants were compared to untreated controls and visually evaluated. Plant response ratings, summarized in Table C, were based upon a 0 to 100 scale where 0 was no effect and 100 was complete control. A dash response (−) means no test result.

[7] = tested on: Italian ryegrass; assay: Test E Italian ryegrass; assay type: in vivo, Lolium multiflorum; settings: Postemergence
Experimental: as §1, §2, §3

[8] = tested on: surinam grass; assay: Test C postemergence surinam grass; assay type: in vivo, Brachiaria decumbens; settings: 0 to 100 scale, 0 no effect, 100 complete control
Experimental: as §1, with “grown for various periods of time before treatment” for “in the 1- to 4-leaf stage”
as §4, §5

[9] = tested on: wild oat; assay: Test E wild oat; assay type: in vivo, Avena fatua; settings: Postemergence
Experimental: as §1, §2, §3

[10] = tested on: giant foxtail; assay: Test C postemergence giant foxtail; assay type: in vivo, Setaria faberii; settings: 0 to 100 scale, 0 no effect, 100 complete control
Experimental: as §1, with “grown for various periods of time before treatment” for “in the 1- to 4-leaf stage”
as §4, §5

[11] = tested on: large crabgrass; assay: Test C postemergence large crabgrass; assay type: in vivo, Digitaria sanguinalis; settings: 0 to 100 scale, 0 no effect, 100 complete control
Experimental: as §1, with “grown for various periods of time before treatment” for “in the 1- to 4-leaf stage”
as §4, §5

[12] = tested on: littleseed canarygrass; assay: Test E littleseed canarygrass; assay type: in vivo, Phalaris minor; settings: Postemergence
Summary of the method: (§6)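 Visual evaluation versus untreated controls after about 21 to 28 days in the greenhouse. Compound was in a surfactant-containing non-phytotoxic solvent; postemergence plants were treated at the 1- to 4-leaf stage, grown in a 60:40 sandy loam and potting mix blend.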

[13] = tested on: soybean; assay: Test C postemergence soybean; assay type: in vivo, Glycine max; settings: 0 to 100 scale, 0 no effect, 100 complete control
Experimental: as §1, with “grown for various periods of time before treatment” for “in the 1- to 4-leaf stage”
as §4, §5

[14] = tested on: field bindweed; assay: Test C postemergence field bindweed; assay type: in vivo, Convolvulus arvensis; settings: 0 to 100 scale, 0 no effect, 100 complete control
Experimental: as §1, with “grown for various periods of time before treatment” for “in the 1- to 4-leaf stage”
as §4, §5

[15] = tested on: velvetleaf; assay: Test C postemergence velvetleaf; assay type: in vivo, Abutilon theophrasti; settings: 0 to 100 scale, 0 no effect, 100 complete control
Experimental: as §1, with “grown for various periods of time before treatment” for “in the 1- to 4-leaf stage”
as §4, §5

[16] = tested on: spring barley; assay: Test E spring barley; assay type: in vivo, Hordeum vulgare; settings: Postemergence
Experimental: as §1, §2, §3

[17] = tested on: wild buckwheat; assay: Test E wild buckwheat; assay type: in vivo, Polygonum convolvulus; settings: Preemergence
[18] = tested on: wild buckwheat; assay: Test E wild buckwheat; assay type: in vivo, Polygonum convolvulus; settings: Postemergence
Summary of the method: as §6

[19] = Rate 62 g/ha, 0 to 100 scale, 0 no effect, 100 complete control
[20] = Rate 125 g/ha, 0 to 100 scale (0 no effect, 100 complete control)
[21] = Rate 250 g/ha, 0 to 100 scale (0 no effect, 100 complete control)

CCn1c(=O)on(C(=O)N(c2ccc(F)cc2)C(C)C)c1=O [Compound 107]
Plant response rating, LS canarygrass [1, 19]: 50
Plant response rating, LS canarygrass [1, 20]: 80
Plant response rating, LS canarygrass ([1]; Rate 250 g/ha, 0 to 100 scale): 80
Plant response rating, Kochia [2, 19]: 50
Plant response rating, Kochia [2, 20]: 60
Plant response rating, Kochia ([2]; Rate 250 g/ha, 0 to 100 scale): 80
Plant response rating, Rape [3, 19]: 60
Plant response rating, Rape [3, 20]: 70
Plant response rating, Rape ([3]; Rate 250 g/ha, 0 to 100 scale): 100
Plant response rating, Russian thistle [4, 19]: 0
Plant response rating, Russian thistle [4, 20]: 0
Plant response rating, Russian thistle ([4]; Rate 250 g/ha, 0 to 100 scale): 10
Plant response rating, Barley (winter) ([5]; Rate 62 g/ha, 0 to 100 scale): 5
Plant response rating, Barley (winter) ([5]; Rate 125 g/ha, 0 to 100 scale): 5
Plant response rating, Barley (winter) [5, 21]: 10
Plant response rating Johnsongrass ([6]; Rate 140 g/ha): 35
Plant response rating Johnsongrass ([6]; Rate 280 g/ha): 50
Plant response rating Johnsongrass ([6]; Rate 560 g/ha): 90
Plant response rating Johnsongrass ([6]; Rate 1120 g/ha): 90
Plant response rating, I. Ryegrass ([7]; Rate 62 g/ha, 0 to 100 scale): 0
Plant response rating, I. Ryegrass ([7]; Rate 125 g/ha, 0 to 100 scale): 50
Plant response rating, I. Ryegrass [7, 21]: 30
Plant response rating, Surinam grass ([8]; Rate 140 g/ha): 10
Plant response rating, Surinam grass ([8]; Rate 280 g/ha): 70
Plant response rating, Surinam grass ([8]; Rate 560 g/ha): 80
Plant response rating, Surinam grass ([8]; Rate 1120 g/ha): 95
Plant response rating, Wild oat ([9]; Rate 62 g/ha, 0 to 100 scale): 5
Plant response rating, Wild oat ([9]; Rate 125 g/ha, 0 to 100 scale): 5
Plant response rating, Wild oat [9, 21]: 0
Plant response rating, Giant foxtail ([10]; Rate 280 g/ha): 70
Plant response rating, Giant foxtail ([10]; Rate 560 g/ha): 95
Plant response rating, Giant foxtail ([10]; Rate 1120 g/ha): 95
Plant response rating Large crabgrass ([11]; Rate 140 g/ha): 70
Plant response rating Large crabgrass ([11]; Rate 280 g/ha): 85
Plant response rating Large crabgrass ([11]; Rate 560 g/ha): 95
Plant response rating Large crabgrass ([11]; Rate 1120 g/ha): 95
Plant response rating, LS canarygrass ([12]; Rate 62 g/ha, 0 to 100 scale): 15
Plant response rating, LS canarygrass ([12]; Rate 125 g/ha, 0 to 100 scale): 20
Plant response rating, LS canarygrass [12, 21]: 60
Plant response rating, Soybean ([13]; Rate 140 g/ha): 45
Plant response rating, Soybean ([13]; Rate 280 g/ha): 70
Plant response rating, Soybean ([13]; Rate 560 g/ha): 85
Plant response rating, Soybean ([13]; Rate 1120 g/ha): 85
Plant response rating Field bindweed ([14]; Rate 140 g/ha): 0
Plant response rating Field bindweed ([14]; Rate 280 g/ha): 0
Plant response rating Field bindweed ([14]; Rate 560 g/ha): 30
Plant response rating Field bindweed ([14]; Rate 1120 g/ha): 60
Plant response rating, Velvetleaf ([15]; Rate 140 g/ha): 5
Plant response rating, Velvetleaf ([15]; Rate 280 g/ha): 60
Plant response rating, Velvetleaf ([15]; Rate 560 g/ha): 70
Plant response rating, Velvetleaf ([15]; Rate 1120 g/ha): 75
Plant response rating, Spring Barley ([16]; Rate 62 g/ha, 0 to 100 scale): 20
Plant response rating, Spring Barley ([16]; Rate 125 g/ha, 0 to 100 scale): 0
Plant response rating, Spring Barley [16, 21]: 30
Plant response rating, Wild buckwheat [17, 19]: 60
Plant response rating, Wild buckwheat [17, 20]: 90
Plant response rating, Wild buckwheat ([17]; Rate 250 g/ha, 0 to 100 scale): 95
Plant response rating, Wild buckwheat ([18]; Rate 62 g/ha, 0 to 100 scale): 0
Plant response rating, Wild buckwheat ([18]; Rate 125 g/ha, 0 to 100 scale): 0
Plant response rating, Wild buckwheat [18, 21]: 10
